The source of these data is patent publication US20090081170A1, “Cardiac progenitor cells” (priority 2007, published 2009).

Where a SMILES comes first, the peptide text is derived from it.

For assay [1], the system named is Tβ4shNk embryo hearts at E14.5. Nature of the assay: AcSDKP intraperitoneal injection into pregnant females, rescue of Tβ4 knockdown embryo hearts. The assay is classed as in vivo, mouse. Particulars: E14.5 Tβ4shNk embryos. From the text:
To investigate a role for Tβ4 during heart development and to provide insight into the mechanism by which the peptide mediates adult cardiac repair, we generated mouse embryos with heart-specific Tβ4 deficiency using a novel strategy of transgenic conditional RNA interference (RNAi; as described above). Floxed Tβ4 short hairpin RNA (Tβ4shRNAflox) mice were crossed with two strains of Cre-expressing mice: Nkx2-5^CreKI (designated Tβ4shNk), which directs Cre expression throughout the majority of cardiomyocytes, and MLC2vCreKI (designated Tβ4shMlc), which directs Cre expression specifically to ventricular cardiomyocytes. Tβ4shNk embryos were also observed to have thymic defects consistent not only with Cre expression driven by Nkx2-5 in the developing thymus, but also with the thymus representing an obvious source of Tβ4.
We next investigated whether AcSDKP could rescue any of the vasculogenesis defects observed in the Tβ4 mutant hearts. […] This supports our interpretation of the primary phenotype in Tβ4 mutants. AcSDKP lacks actin binding function, rendering it unable to stimulate filamentous actin assembly and lamellipodia-based cell migration and consequently unable to rescue the EPDC defect. […]

Assay [2] relates to adult heart explants (adult EPDCs). Nature of the assay: Adult epicardial explant culture: EPDC outgrowth and differentiation. The assay is classed as cell-based, mouse. As to the method:
A simple protocol for the outgrowth and differentiation of vasculogenic precursor cells (endothelial and vascular smooth muscle cells) from adult heart using Thymosin β4 to stimulate epicardial cell migration is described below.
• 1. Coat 6-well plates with gelatin: pipette 2 ml 0.1% gelatin solution, allow to stand for 15 minutes and aspirate. Optionally, place coverslips into wells, prior to gelatin coating. • 2. Cull adult mouse by cervical dislocation. • 3. Using sterile forceps and scissors make a lateral incision in the centre of the abdomen and tear back the fur to expose the rib cage. • 4. Carefully cut upwards through the sternum and along the diaphragm, taking care not to cut into the heart. Pull back the ribs to reveal the heart. • 5. Remove the heart using forceps and dissect away the atria and major vessels, to leave right and left ventricles. • 6. Place tissue in a 60 mm tissue culture dish (non gelatin coated) containing 2 ml DPBS. Cut into quarters and allow blood to rinse from the tissue. Carefully aspirate away DPBS. Using a sterile scalpel, cut the heart into pieces of approximately 1 mm^3. Reproducible EPDC outgrowth strongly depends upon the size of the heart pieces (optimally 1 mm^3). Larger pieces will not adhere to permit sufficient migration while smaller pieces tend to dissociate completely and cardiomyocyte death precedes adherence and EPDC outgrowth. • 7. Divide heart pieces into 4 equal portions (1 adult heart is typically divided between 4 wells for optimal EPDC outgrowth). • 8. Pipette 2 ml of EPDC culture medium, supplemented with 100 ng/ml Tβ4, into each well to be used. • 9. Place 1 portion of heart tissue into the centre of each well and ensure that all pieces are submerged. • 10. Gently transfer the plate to a humidified 5% CO2 37° C. incubator. Maintain cultures with minimum disturbance to allow explants to adhere. No feeding is required for the first 72 hours. Minimal disturbance is absolutely essential for EPDC outgrowth. Explants adhere only tenuously in the first instance and disturbance in the first few days of culture will prevent adhesion or lead to detachment. Plates should be transferred extremely cautiously between incubator and microscope or culture hood. After sufficient EPDCs have emerged, explants attach more firmly but care is still required as detachment may easily occur. • 11. After 72 hours in culture, carefully transfer plate to culture hood, wash explants gently with DPBS and add 2 ml fresh EPDC medium containing 100 ng/ml Tβ4. Leave for a further 24 hours before assessment of cellular phenotype.
• 1. Culture adult heart explants as described above. • 2. After 72 hours of culture, fix cells with 4% PFA for 10 minutes at room temperature. • 3. Wash cells twice with PBS. • 4. Permeabilise cells with 0.5% Triton X-100 in PBS for 5 minutes at room temperature. • 5. Wash cells twice with PBS. • 6. Block non-specific binding by incubating cells in BLOCK (1% BSA/10% sheep serum in PBS) for 1 hour at room temperature. • 7. Incubate cells with an appropriate dilution of primary antibody (epicardin, 1:100; SMalphaA, 1:700; Flk1, 1:100), or Procollagen type I, 1:100), in BLOCK. • 8. Wash cells 3 times using BLOCK. • 9. Incubate cells with the appropriate secondary antibody (epicardin: Cy3-conjugated anti-rabbit; SMalphaA: FITC-conjugated anti-mouse, 1:30; Procollagen type I: Alexa 488-conjugated anti-goat, 1:200; Flk1: Alexa 594-conjugated anti-rat, 1:200) diluted in BLOCK. • 10. Wash cells twice in PBS. • 11. Optionally, to stain nuclei, incubate with 5 ug/ml Hoechst in PBS for 5 minutes at room temperature. • 12. Wash cells twice in PBS. • 13. Mount coverslips onto microscope slides using 50% glycerol in PBS as mountant and visualize using a fluorescence microscope. […]

For the compound `CC(=O)N[C@@H](CO)C(=O)N[C@@H](CC(=O)O)C(=O)N[C@@H](CCCCN)C(=O)N1CCC[C@H]1C(=O)O` [AcSDKP, N-acetyl-seryl-aspartyllysyl-proline] (Ac-SDKP-OH), the “rescue of the phenotype attributed to Tβ4 knockdown” value in assay [1] is given as “failed to rescue any of the phenotype”. In addition, in assay [2] (adult epicardial explants), the “differentiated (Flk1-positive) endothelial cells” value was “striking increase”. The “smooth muscle cells in treated cultures” value in assay [2] (adult epicardial explants, data not shown) is reported as “only very few smooth muscle cells observed”. Further, the “EPDC outgrowth from adult heart explants” value in assay [2] (adult mouse heart explants, 8-12 weeks, vs untreated explants) is recorded as “unable to promote epicardial outgrowth beyond control levels”.
